Laboratory results from patent US12391737B2, “Soluble NPY2 receptor agonists” (Boehringer Ingelheim International GmbH, priority 2020, dated 2025).
*1 amine or outer side, *2 acyl side, *3 side chain or, on linkers, in order; H or OH if unused. Where a SMILES comes first, the peptide text is derived from it. Side-chain parts run from the residue outwards. The star is where a group is joined. C18 diacid = O=C(O)CCCCCCCCCCCCCCCCC(=O)*; γGlu = O=C(O)[C@H](CCC(=O)[*:2])N[*:1]; Isovaleryl = CC(C)CC(=O)*; Ahx = NCCCCCC(=O)O

Experiments:
[1] = target: T1, Human Neuropeptide Y2 Receptor (Homo sapiens, UniProt P49146); experiment: Radioligand binding competition assay (RLB); details: Table 3, 125I-PYY(1-36) competition; read-out: Ki
T1 construct: purchased CHEMICON HTS066M
T1 sequence (P49146 1-381): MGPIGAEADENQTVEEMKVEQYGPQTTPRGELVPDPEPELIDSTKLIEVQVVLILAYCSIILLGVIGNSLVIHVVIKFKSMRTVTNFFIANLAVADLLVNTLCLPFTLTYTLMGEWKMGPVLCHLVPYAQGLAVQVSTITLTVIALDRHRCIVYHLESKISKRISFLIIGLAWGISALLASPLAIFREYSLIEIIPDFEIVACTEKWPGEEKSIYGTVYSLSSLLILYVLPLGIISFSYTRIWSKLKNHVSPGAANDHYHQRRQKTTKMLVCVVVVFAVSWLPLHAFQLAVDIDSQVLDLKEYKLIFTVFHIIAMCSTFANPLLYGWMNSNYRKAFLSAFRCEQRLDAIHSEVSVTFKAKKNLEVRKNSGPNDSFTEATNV
How it was run: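 Peptides were serially diluted from 1 mM DMSO stocks and competed for radioligand binding to receptor membranes (0.5 μg/well) over 2 h at room temperature, pH 7.4 HEPES buffer. Bound radioactivity on filters was counted by scintillation, and IC50 was derived by nonlinear regression.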

Solubility determination = details: for Sol6: pH 6; for Sol7: pH 7
How it was run: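 Shake-flask style: 10 mg/ml peptide (TFA salt), 0.1 M sodium diphosphate pH 6.4/7.0, 600 rpm, 2 h, RT; filter; dilute 1 mg/ml in 50% MeCN; RP-UPLC, 0–100% B over 2 min, 50 °C. Solubility = sample/control area ratio. Final pH recorded.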

Compound | Ki [1] | Sol6 (Solubility determination) | Sol7 (Solubility determination)
CC(C)CC(=O)N[C@@H](C)C(=O)N1CCC[C@H]1C(=O)N[C@@H](CCC(=O)O)C(=O)N[C@@H](CCCCNC(=O)CCCCCNC(=O)CC[C@H](NC(=O)CCCCCCCCCCCCCCCCC(=O)O)C(=O)O)C(=O)N1CCC[C@H]1C(=O)N[C@@H](CCC(=O)O)C(=O)N[C@@H](C)C(=O)N[C@@H](CC(=O)O)C(=O)N[C@@H](C)C(=O)N[C@@H](CO)C(=O)N1CCC[C@H]1C(=O)N[C@@H](CCC(=O)O)C(=O)N[C@@H](CCC(=O)O)C(=O)N[C@@H](CC(C)C)C(=O)N[C@@H](CCC(N)=O)C(=O)N[C@@H](CCCNC(=N)N)C(=O)N[C@@H](Cc1ccc(O)cc1)C(=O)N[C@@H](Cc1ccc(O)cc1)C(=O)N[C@H](C(=O)N[C@@H](CCC(=O)O)C(=O)N[C@@H](CC(C)C)C(=O)N[C@@H](CCCNC(=N)N)C(=O)N[C@@H](Cc1c[nH]cn1)C(=O)N[C@@H](Cc1ccc(O)cc1)C(=O)N[C@@H](Cc1ccc(O)cc1)C(=O)N[C@@H](CC(N)=O)C(=O)N[C@@H](Cc1c[nH]c2ccccc12)C(=O)N[C@@H](CC(C)C)C(=O)N[C@H](C(=O)N[C@@H](CCCNC(=N)N)C(=O)N[C@@H](CCC(N)=O)C(=O)N[C@@H](CCCNC(=N)N)C(=O)N[C@@H](Cc1ccc(O)cc1)C(N)=O)[C@@H](C)O)C(C)C [Compound 171, N{alpha-4}-(3-methylbutanoyl)-N{epsilon-7}-(6-[(4S)-4-carboxy-4-(17-carboxyheptadecanamido)butanamido]hexanoyl)-[4A,7K,9E,10A,18Q,22V,23E,28Y,30W,31L]-hPYY(4-36)] | 2.83 nM | 10.0 mg/mL | 10.0 mg/mL
CC(C)CC(=O)N[C@@H](C)C(=O)N1CCC[C@H]1C(=O)N[C@@H](CCC(=O)O)C(=O)N[C@@H](CCCCNC(=O)CCCCCNC(=O)CC[C@H](NC(=O)CCCCCCCCCCCCCCCCC(=O)O)C(=O)O)C(=O)N1CCC[C@H]1C(=O)N[C@@H](CCC(=O)O)C(=O)N[C@@H](CCC(=O)O)C(=O)N[C@@H](CC(=O)O)C(=O)N[C@@H](C)C(=O)N[C@H](C(=O)N1CCC[C@H]1C(=O)N[C@@H](CCC(=O)O)C(=O)N[C@@H](CCC(=O)O)C(=O)N[C@@H](CC(C)C)C(=O)N[C@@H](CCC(N)=O)C(=O)N[C@@H](CCCNC(=N)N)C(=O)N[C@@H](Cc1ccc(O)cc1)C(=O)N[C@@H](Cc1ccc(O)cc1)C(=O)N[C@H](C(=O)N[C@@H](CO)C(=O)N[C@@H](CC(C)C)C(=O)N[C@@H](CCCNC(=N)N)C(=O)N[C@@H](Cc1c[nH]cn1)C(=O)N[C@@H](Cc1ccc(O)cc1)C(=O)N[C@@H](Cc1ccc(O)cc1)C(=O)N[C@@H](CC(N)=O)C(=O)N[C@@H](Cc1c[nH]c2ccccc12)C(=O)N[C@@H](CC(C)C)C(=O)N[C@H](C(=O)N[C@@H](CCCNC(=N)N)C(=O)N[C@@H](CCC(N)=O)C(=O)N[C@@H](CCCNC(=N)N)C(=O)N[C@@H](Cc1ccc(O)cc1)C(N)=O)[C@@H](C)O)C(C)C)[C@@H](C)O [Compound 173, N{alpha-4}-(3-methylbutanoyl)-N{epsilon-7}-(6-[(4S)-4-carboxy-4-(17-carboxyheptadecanamido)butanamido]hexanoyl)-[4A,7K,9E,13T,18Q,22V,28Y,30W,31L]-hPYY(4-36)] | 4.07 nM | 9.2 mg/mL | 9.6 mg/mL
CC(C)CC(=O)N[C@@H](C)C(=O)N1CCC[C@H]1C(=O)N[C@@H](CCC(=O)O)C(=O)N[C@@H](CCCCNC(=O)CCCCCNC(=O)CC[C@H](NC(=O)CCCCCCCCCCCCCCCCC(=O)O)C(=O)O)C(=O)N1CCC[C@H]1C(=O)NCC(=O)N[C@@H](C)C(=O)N[C@@H](CC(=O)O)C(=O)N[C@@H](C)C(=O)N[C@@H](CO)C(=O)N1CCC[C@H]1C(=O)N[C@@H](CCC(=O)O)C(=O)N[C@@H](CCCCN)C(=O)N[C@@H](CC(C)C)C(=O)N[C@@H](CCC(N)=O)C(=O)N[C@@H](CCCNC(=N)N)C(=O)N[C@@H](Cc1ccc(O)cc1)C(=O)N[C@@H](Cc1ccc(O)cc1)C(=O)N[C@H](C(=O)N[C@@H](CO)C(=O)N[C@@H](CC(C)C)C(=O)N[C@@H](CCCNC(=N)N)C(=O)N[C@@H](Cc1c[nH]cn1)C(=O)N[C@@H](Cc1ccc(O)cc1)C(=O)N[C@@H](Cc1ccc(O)cc1)C(=O)N[C@@H](Cc1c[nH]cn1)C(=O)N[C@@H](CCCCN)C(=O)N[C@@H](CC(C)C)C(=O)N[C@H](C(=O)N[C@@H](CCCNC(=N)N)C(=O)N[C@@H](CCC(N)=O)C(=O)N[C@@H](CCCNC(=N)N)C(=O)N[C@@H](Cc1ccc(O)cc1)C(N)=O)[C@@H](C)O)C(C)C [Compound 174, N{alpha-4}-(3-methylbutanoyl)-N{epsilon-7}-(6-[(4S)-4-carboxy-4-(17-carboxyheptadecanamido)butanamido]hexanoyl)-[4A,7K,10A,16K,18Q,22V,28Y,29H,30K,31L]-hPYY(4-36)] (Isovaleryl-APEK([Ahx-γGlu-C18 diacid])PGADASPEKLQRYYVSLRHYYHKLTRQRY-NH2) | 0.21 nM | 3.1 mg/mL | 1.2 mg/mL
CC(C)CC(=O)N[C@@H](C)C(=O)N1CCC[C@H]1C(=O)N[C@@H](CCC(=O)O)C(=O)N[C@@H](CCCCNC(=O)CCCCCNC(=O)CC[C@H](NC(=O)CCCCCCCCCCCCCCCCC(=O)O)C(=O)O)C(=O)N1CCC[C@H]1C(=O)N[C@@H](CCC(=O)O)C(=O)N[C@@H](CCC(=O)O)C(=O)N[C@@H](CC(=O)O)C(=O)N[C@@H](C)C(=O)N[C@H](C(=O)N1CCC[C@H]1C(=O)N[C@@H](CCC(=O)O)C(=O)N[C@@H](CCC(=O)O)C(=O)N[C@@H](CC(C)C)C(=O)N[C@@H](CCC(N)=O)C(=O)N[C@@H](CCC(N)=O)C(=O)N[C@@H](Cc1ccc(O)cc1)C(=O)N[C@@H](Cc1ccc(O)cc1)C(=O)N[C@H](C(=O)N[C@@H](CO)C(=O)N[C@@H](CC(C)C)C(=O)N[C@@H](CCCNC(=N)N)C(=O)N[C@@H](Cc1c[nH]cn1)C(=O)N[C@@H](Cc1ccc(O)cc1)C(=O)N[C@@H](Cc1ccc(O)cc1)C(=O)N[C@@H](CC(N)=O)C(=O)N[C@@H](Cc1c[nH]c2ccccc12)C(=O)N[C@@H](CC(C)C)C(=O)N[C@H](C(=O)N[C@@H](CCCNC(=N)N)C(=O)N[C@@H](CCC(N)=O)C(=O)N[C@@H](CCCNC(=N)N)C(=O)N[C@@H](Cc1ccc(O)cc1)C(N)=O)[C@@H](C)O)C(C)C)[C@@H](C)O [Compound 177, N{alpha-4}-(3-methylbutanoyl)-N{epsilon-7}-(6-[(4S)-4-carboxy-4-(17-carboxyheptadecanamido)butanamido]hexanoyl)-[4A,7K,9E,13T,18Q,19Q,22V,28Y,30W,31L]-hPYY(4-36)] | 8.65 nM | >10.0 mg/mL | 10.0 mg/mL
CC[C@H](C)[C@H](NC(=O)[C@H](CCC(=O)O)NC(=O)[C@H](CCC(=O)O)NC(=O)[C@@H]1CCCN1C(=O)[C@@H](NC(=O)[C@H](C)NC(=O)[C@H](C)NC(=O)[C@H](C)NC(=O)[C@H](CCC(=O)O)NC(=O)[C@@H]1CCCN1C(=O)[C@H](CCCCNC(=O)CCCCCNC(=O)CC[C@H](NC(=O)CCCCCCCCCCCCCCCCC(=O)O)C(=O)O)NC(=O)[C@H](CCC(=O)O)NC(=O)[C@@H]1CCCN1C(=O)[C@H](C)NC(=O)CC(C)C)[C@@H](C)O)C(=O)N[C@@H](CCC(N)=O)C(=O)N[C@@H](CCCNC(=N)N)C(=O)N[C@@H](Cc1ccc(O)cc1)C(=O)N[C@@H](Cc1ccc(O)cc1)C(=O)N[C@H](C(=O)N[C@@H](C)C(=O)N[C@@H](CC(C)C)C(=O)N[C@@H](CCCNC(=N)N)C(=O)N[C@@H](Cc1c[nH]cn1)C(=O)N[C@@H](Cc1ccc(O)cc1)C(=O)N[C@@H](Cc1ccc(O)cc1)C(=O)N[C@@H](CC(N)=O)C(=O)N[C@@H](Cc1c[nH]c2ccccc12)C(=O)N[C@@H](CC(C)C)C(=O)N[C@H](C(=O)N[C@@H](CCCNC(=N)N)C(=O)N[C@@H](CCC(N)=O)C(=O)N[C@@H](CCCNC(=N)N)C(=O)N[C@@H](Cc1ccc(O)cc1)C(N)=O)[C@@H](C)O)C(C)C [Compound 178, N{alpha-4}-(3-methylbutanoyl)-N{epsilon-7}-(6-[(4S)-4-carboxy-4-(17-carboxyheptadecanamido)butanamido]hexanoyl)-[4A,7K,9E,10A,11A,13T,17I,18Q,22V,23A,28Y,30W,31L]-hPYY(4-36)] | 3.39 nM | 0.0 mg/mL | 0.4 mg/mL
CC(C)CC(=O)N[C@@H](C)C(=O)N1CCC[C@H]1C(=O)N[C@@H](CCC(=O)O)C(=O)N[C@@H](CCCCNC(=O)CCCCCNC(=O)CC[C@H](NC(=O)CCCCCCCCCCCCCCCCC(=O)O)C(=O)O)C(=O)N1CCC[C@H]1C(=O)N[C@@H](CCC(=O)O)C(=O)N[C@@H](C)C(=O)N[C@@H](CC(=O)O)C(=O)N[C@@H](C)C(=O)N[C@@H](CO)C(=O)N1CCC[C@H]1C(=O)N[C@@H](CCC(=O)O)C(=O)N[C@@H](CCC(=O)O)C(=O)N[C@H](C(=O)N[C@@H](CCC(N)=O)C(=O)N[C@@H](CCCNC(=N)N)C(=O)N[C@@H](Cc1ccc(O)cc1)C(=O)N[C@@H](Cc1ccc(O)cc1)C(=O)N[C@H](C(=O)N[C@@H](C)C(=O)N[C@@H](CC(C)C)C(=O)N[C@@H](CCCNC(=N)N)C(=O)N[C@@H](Cc1c[nH]cn1)C(=O)N[C@@H](Cc1ccc(O)cc1)C(=O)N[C@@H](Cc1ccc(O)cc1)C(=O)N[C@@H](CC(N)=O)C(=O)N[C@@H](Cc1c[nH]c2ccccc12)C(=O)N[C@@H](CC(C)C)C(=O)N[C@H](C(=O)N[C@@H](CCCNC(=N)N)C(=O)N[C@@H](CCC(N)=O)C(=O)N[C@@H](CCCNC(=N)N)C(=O)N[C@@H](Cc1ccc(O)cc1)C(N)=O)[C@@H](C)O)C(C)C)[C@@H](C)O [Compound 179, N{alpha-4}-(3-methylbutanoyl)-N{epsilon-7}-(6-[(4S)-4-carboxy-4-(17-carboxyheptadecanamido)butanamido]hexanoyl)-[4A,7K,9E,10A,17T,18Q,22V,23A,28Y,30W,31L]-hPYY(4-36)] | 0.89 nM | 8.1 mg/mL | 8.3 mg/mL
